The assay deals with human recombinant 5-HT2C receptor (Homo sapiens (Human), UniProt P28335). The assay is described as follows: 5-HT2C receptor binding inhibition test ([3H]-Mesulergine). The note with it: Jump-In HEK cell membrane, 37° C. 2 hours. In outline:
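Radioligand displacement on HEK membranes expressing human recombinant 5-HT2C (0.5 μg/well), [3H]-mesulergine near its Kd, in pH 7.4 Tris-HCl buffer with NaCl, MgCl2, KCl, CaCl2 and 0.1% BSA, 2 h at 37° C. Bound radioactivity measured after GF/B filtration; non-specific binding defined with 500 μmol/L serotonin, Ki from dose-response curve.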

[1] abbreviates: read-out: human serotonin 5-HT2C receptor binding activity Ki.

Where two headings read alike, the source gives them in different places. Bounds are passed on as bounds.

Sequence of human recombinant 5-HT2C receptor (P28335 33-458): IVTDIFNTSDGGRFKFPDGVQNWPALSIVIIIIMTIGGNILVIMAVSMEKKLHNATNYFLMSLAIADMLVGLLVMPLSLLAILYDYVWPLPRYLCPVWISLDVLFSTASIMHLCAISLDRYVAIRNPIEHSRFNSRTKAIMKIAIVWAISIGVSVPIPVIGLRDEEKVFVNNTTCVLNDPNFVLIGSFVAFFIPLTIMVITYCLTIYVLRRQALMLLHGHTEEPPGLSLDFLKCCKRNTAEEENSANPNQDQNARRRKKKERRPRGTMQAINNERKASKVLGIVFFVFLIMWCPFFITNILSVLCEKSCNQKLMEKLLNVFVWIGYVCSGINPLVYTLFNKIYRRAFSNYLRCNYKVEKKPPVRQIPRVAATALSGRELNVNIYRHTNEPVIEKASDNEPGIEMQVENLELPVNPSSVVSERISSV

A word on the Ki: it is the equilibrium dissociation constant of an inhibitor or competing ligand from its target. As for `Cc1nc(CN(Cc2ccc(OCC(C)C)cc2F)C2=NOC3(CCN(C)CC3)N2)co1` [Compound I-128], under setting [1], the Ki came to 0.374 nM.
For the compound `CCCCOc1ccc(CN(Cc2coc(C)n2)C2=NOC3(CCN(C)CC3)N2)cc1F` [Compound I-115], the inhibition constant (Ki) under setting [1] came to 0.469 nM.
Still for that read-out and setting: the value for `CCCCOc1ccc(CN(Cc2coc(CF)n2)C2=NOC3(CCN(C)CC3)N2)cc1` [Compound I-105] was 1.13 nM.
In the case of `CC(C)COc1ccc(CN(Cc2coc(CF)n2)C2=NOC3(CCN(C)CC3)N2)cc1` [Compound I-067], the Ki (read-out: h-5-HT2C Ki) was less than 10 nM and the Ki under setting [1] turned out to be 0.95 nM.
Regarding `CCCCOc1ccc(CN(Cc2cnn(C)n2)C2=NOC3(CCN(C)CC3)N2)cc1` [Compound I-113], under setting [1], the Ki amounted to 1.6 nM.
Same read-out and setting: the value for `Cc1nc(CN(Cc2ccc(OCC(F)(F)C(F)(F)F)cc2F)C2=NOC3(CCN(C)CC3)N2)co1` [Compound I-104] was 0.578 nM.
On the same count and under the same terms, the value for `CCCCOc1ccc(CN(Cc2coc(C)n2)C2=NOC3(CCN(C)CC3)N2)c(F)c1` [Compound I-114] was 0.543 nM.
As for `CCCCOc1ccc(CN(Cc2coc(C)n2)C2=NOC3(CCN(C)CC3)N2)cc1` [Compound I-080], the Ki was less than 10 nM (read-out: h-5-HT2C Ki) and 0.579 nM under setting [1].
In the case of `Cc1nc(CN(Cc2ccc(CCC(F)(F)F)cc2)C2=NOC3(CCN(C)CC3)N2)co1` [Compound I-125], the inhibition constant (Ki) under setting [1] was determined as 0.694 nM.

Source of the values: patent US20250026765A1, “SPIROHETEROCYCLE DERIVATIVE HAVING SEROTONIN RECEPTOR BINDING ACTIVITY” (Shionogi & Co., Ltd., priority 2021, published 2025).
